This note sets out measurements from ChEMBL document CHEMBL6096678, “Targeting QPCTL: An Emerging Therapeutic Opportunity” (J Med Chem, 2025).

For test [1], the target named is Glutaminyl-peptide cyclotransferase (Homo sapiens, UniProt Q16769). In words: Binding affinity to QPCT (unknown origin) assessed as inhibition constant.
Test [2] deals with T1, Glutaminyl-peptide cyclotransferase-like protein (Homo sapiens, UniProt Q9NXS2). As to the kind of experiment: Binding affinity to QPTCL (unknown origin) assessed as inhibition constant.
T1 sequence (Q9NXS2 whole entry): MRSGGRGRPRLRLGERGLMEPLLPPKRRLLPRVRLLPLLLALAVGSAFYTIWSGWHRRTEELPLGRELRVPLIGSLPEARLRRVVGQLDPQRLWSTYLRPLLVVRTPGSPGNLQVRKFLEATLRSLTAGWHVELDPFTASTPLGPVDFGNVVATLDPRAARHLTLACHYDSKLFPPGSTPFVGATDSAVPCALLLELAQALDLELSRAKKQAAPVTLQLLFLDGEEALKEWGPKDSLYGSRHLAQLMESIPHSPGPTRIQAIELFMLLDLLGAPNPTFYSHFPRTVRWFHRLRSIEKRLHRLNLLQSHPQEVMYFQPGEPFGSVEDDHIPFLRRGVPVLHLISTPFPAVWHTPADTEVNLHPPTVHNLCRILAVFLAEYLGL
Test [3] has as its target T1, Glutaminyl-peptide cyclotransferase-like protein. In words: Inhibition of QPCTL (unknown origin).
Test [4] has the same target. As to the kind of experiment: Binding affinity to QPCTL (unknown origin) extracted from Escherichia coli BL21 (DE3) assessed as inhibition constant.
For test [5] the target is unchanged. In words: Binding affinity to QPCTL (unknown origin) assessed as dissociation constant.

Sequence of Glutaminyl-peptide cyclotransferase (Q16769 whole entry): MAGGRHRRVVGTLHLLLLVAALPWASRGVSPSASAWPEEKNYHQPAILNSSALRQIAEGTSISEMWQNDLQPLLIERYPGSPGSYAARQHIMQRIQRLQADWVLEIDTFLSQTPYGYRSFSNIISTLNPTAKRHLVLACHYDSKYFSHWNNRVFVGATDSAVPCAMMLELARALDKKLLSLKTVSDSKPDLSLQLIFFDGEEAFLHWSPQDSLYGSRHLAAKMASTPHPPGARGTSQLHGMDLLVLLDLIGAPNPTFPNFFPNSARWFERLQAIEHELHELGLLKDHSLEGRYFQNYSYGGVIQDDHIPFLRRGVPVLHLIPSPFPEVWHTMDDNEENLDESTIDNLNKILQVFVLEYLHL

As to `CCCOc1ccc(C2c3c(nn(C)c3C)C(=O)N2c2ccc3[nH]cnc3c2)c(F)c1` (configuration not stated), the Ki (usually the equilibrium dissociation constant of an inhibitor or competing ligand from its target) in test [1] was below 0.1 µM; in test [2] it was below 0.025 µM. As to `Cc1ccc(-c2ccsc2)c(N2CCC(c3nnc(N)n3C)CC2)n1`, the IC50 (as a rule, the concentration that gives 50% inhibition) in test [3] is below 0.001 µM. Regarding `O=C1[C@H](O)[C@H](c2c(F)cc(-c3cnn(C(F)F)c3)cc2F)N1c1ccc2[nH]cnc2c1`, the Ki in test [2] was below 0.002 µM.

For the molecule `Cn1ccnc1` [1-METHYLIMIDAZOLE], the Ki in test [4] came to 79 µM. Turning to `O=c1cc(-c2ccc(O)c(O)c2)oc2cc(O)cc(O)c12` [LUTEOLIN], in test [5], the dissociation constant (Kd) (commonly the constant that tells how readily two partners part at equilibrium) came to 9.4 µM. On to `CCCOc1ccc([C@H]2CNC(=O)N2c2ccc3[nH]cnc3c2)cc1` [VAROGLUTAMSTAT], for which, in test [2], the Ki stood at 0.005 µM.
